Assay results from patent US20250084078A1, “FUSED RING-SUBSTITUTED SIX-MEMBERED HETEROCYCLIC COMPOUND, AND PREPARATION METHOD THEREFOR AND USE THEREOF” (GENFLEFT THERAPEUTICS (SHANGHAI) INC., priority 2022, published 2025).

Target: HPK1 (Homo sapiens, UniProt Q92918)
Assay: SLP76 phosphorylation assay (intracellular HPK1 inhibitory activity, p-SLP76 S376 ELISA in Jurkat cells)
Conditions: p-SLP76 IC50, Jurkat, Clone E6-1 cells; 1 h compound pre-incubation; anti-CD3 beads stimulation 20 min; Phospho-SLP-76 (Ser376) ELISA

HPK1, sequence (Q92918 whole entry): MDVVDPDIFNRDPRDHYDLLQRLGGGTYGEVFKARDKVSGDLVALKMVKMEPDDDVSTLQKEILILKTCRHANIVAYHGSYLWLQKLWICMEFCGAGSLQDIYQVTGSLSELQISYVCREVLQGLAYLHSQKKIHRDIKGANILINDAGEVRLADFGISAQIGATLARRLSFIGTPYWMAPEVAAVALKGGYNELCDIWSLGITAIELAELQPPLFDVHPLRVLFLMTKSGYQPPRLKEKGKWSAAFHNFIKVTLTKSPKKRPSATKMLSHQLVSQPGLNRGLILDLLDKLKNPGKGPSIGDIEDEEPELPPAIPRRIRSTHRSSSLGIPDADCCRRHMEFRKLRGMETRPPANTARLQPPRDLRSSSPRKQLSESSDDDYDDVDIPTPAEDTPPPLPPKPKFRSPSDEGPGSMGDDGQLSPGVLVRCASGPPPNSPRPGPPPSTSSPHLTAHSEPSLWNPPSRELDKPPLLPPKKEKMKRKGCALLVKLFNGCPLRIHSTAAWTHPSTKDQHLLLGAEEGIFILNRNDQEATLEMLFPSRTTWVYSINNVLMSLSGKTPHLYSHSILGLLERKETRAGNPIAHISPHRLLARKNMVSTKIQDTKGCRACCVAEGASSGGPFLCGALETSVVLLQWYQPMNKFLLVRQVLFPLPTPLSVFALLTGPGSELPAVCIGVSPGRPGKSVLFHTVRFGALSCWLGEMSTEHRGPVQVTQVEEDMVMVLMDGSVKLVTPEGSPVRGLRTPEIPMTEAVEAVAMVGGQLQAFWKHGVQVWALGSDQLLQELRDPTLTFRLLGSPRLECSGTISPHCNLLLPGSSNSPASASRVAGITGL

| Structure (SMILES) | IC50 [µM] |
| --- | --- |
| COc1c[nH]c2ncc(-c3cc4c(c([C@@H]5COCCN5)c3)CN(C(=O)C(C)(C)O)CC4)cc12 [Compound Z576, (R)-2-hydroxy-1-(6-(3-methoxy-1H-pyrrolo[2,3-b]pyridin-5-yl)-8-(morpholin-3-yl)-3,4-dihydroisoquinolin-2(1H)-yl)-2-methylpropan-1-one] | 0.188 |
| O=C(N1CCOCC1)N1CCc2cc(-c3cnc4[nH]cc(Cl)c4n3)cc([C@@H]3COCCN3)c2C1 [Compound Z527, (R)-(6-(7-chloro-5H-pyrrolo[2,3-b]pyrazin-2-yl)-8-(morpholin-3-yl)-3,4-dihydroisoquinolin-2(1H)-yl)(morpholino)methanone] | 0.164 |
| Cc1c[nH]c2ncc(-c3cc4c(c([C@@H]5COCCN5)c3)CN(C(=O)c3cnn(C(C)C)c3)CC4)cc12 [Compound Z477] | 0.422 |
| N#Cc1c[nH]c2ncc(-c3cc4c(c([C@@H]5COCCN5)c3)CN(C(=O)N3C5CCC3COC5)CC4)nc12 [Compound Z583, 2-(2-(3-oxa-8-azabicyclo[3.2.1]octane-8-carbonyl)-8-((R)-morpholin-3-yl)-1,2,3,4-tetrahydroisoquinolin-6-yl)-5H-pyrrolo[2,3-b]pyrazine-7-carbonitrile] | 2.67 |
| Cc1cccnc1C#Cc1c[nH]c2ncc(-c3cc4c(c([C@@H]5COCCN5)c3)CN(C(=O)C(C)(C)O)CC4)cc12 [Compound Z578, (R)-2-hydroxy-2-methyl-1-(6-(3-50 ((3-methylpyridin-2-yl)ethynyl)-1H-pyrrolo[2,3-b]pyridin-5-yl)-8-(morpholin-3-yl)-3,4-dihydroisoquinolin-2(1H)-yl)propan-1-one] | 0.163 |
| CCc1c[nH]c2ncc(-c3cc4c(c([C@@H]5COCCN5)c3)CN(C(=O)c3cnc(C)nc3)CC4)nc12 [Compound Z533, (R)-(6-(7-ethyl-5H-pyrrolo[2,3-b]pyrazin-2-yl)-8-(morpholin-3-yl)-3,4-dihydroisoquinolin-2(1H)-yl)(2-methylpyrimidin-5-yl)methanone] | 0.229 |
| COc1c[nH]c2ncc(-c3cc4c(c([C@@H]5COCCN5)c3)CN(C(=O)N3CC5CCC(C3)O5)CC4)cc12 [Compound Z592] | 0.215 |
| Cc1ncc(C(=O)N2CCc3cc(-c4cnc5[nH]cc(Cl)c5c4)cc([C@@H]4COCCN4)c3C2)cn1 [Compound Z532, (R)-(6-(3-50 chloro-1H-pyrrolo[2,3-b]pyridin-5-yl)-8-(morpholin-3-yl)-3,4-dihydroisoquinolin-2(1H)-yl)(2-methylpyrimidin-5-yl)methanone] | 0.394 |
| O=C(N1CCc2cc(-c3cnc4[nH]cc(Cl)c4c3)cc([C@@H]3COCCN3)c2C1)C1(O)CC1 [Compound Z435, (R)-(6-(3-chloro-1H-pyrrolo[2,3-b]pyridin-5-yl)-8-(morpholin-3-yl)-3,4-dihydroisoquinolin-2(1H)-yl)(1-hydroxycyclopropyl)methanone] | 0.258 |
| Cc1n[nH]c2ncc(-c3cc4c(c([C@@H]5COCCN5)c3)CN(C(=O)C(C)(C)O)CC4)cc12 [Compound Z455, (R)-2-hydroxy-2-methyl-1-(6-(3-methyl-1H-pyrazolo [3,4-b]pyridin-5-yl)-8-(morpholin-3-yl)-3,4-dihydroisoquinolin-2(1H)-yl)propan-1-one] | 4.43 |
| O=C(N1CCc2cc(-c3cnc4[nH]cc(C(F)(F)F)c4n3)cc([C@@H]3COCCN3)c2C1)N1C2CCC1COC2 [Compound Z584, (3-oxa-8-azabicyclo[3.2.1]octan-8-yl)(8-((R)-morpholin-3-yl)-6-(7-(trifluoromethyl)-5H-pyrrolo[2,3-b]pyrazin-2-yl)-3,4-dihydroisoquinolin-2(1H)-yl)methanone] | 0.127 |
| CCc1c[nH]c2ncc(-c3cc4c(c([C@@H]5COCCN5)c3)CN(C(=O)c3cnc(C)nc3)CC4)cc12 [Compound Z567, (R)-(6-(3-ethyl-1H-pyrrolo[2,3-b]pyridin-5-yl)-8-(morpholin-3-yl)-3,4-dihydroisoquinolin-2(1H)-yl)(2-methylpyrimidin-5-yl)methanone] | 0.125 |
| CCc1c(F)[nH]c2ncc(-c3cc4c(c([C@@H]5COCCN5)c3)CN(C(=O)C(C)(C)O)CC4)cc12 [Compound Z464, (R)-3-(6-(3-ethyl-2-fluoro-1H-pyrrolo[2,3-b]pyridin-5-yl)-2-(2-hydroxy-2-methylpropanoyl)-1,2,3,4-tetrahydroisoquinolin-8-yl)morpholine] | 0.193 |
| O=C(N1CCc2cc(-c3cnc4[nH]cc(F)c4n3)cc([C@@H]3COCCN3)c2C1)N1CC2CCC(C1)O2 [Compound Z522, (8-oxa-3-azabicyclo[3.2.1]octan-3-yl)(6-(7-fluoro-5H-pyrrolo[2,3-b]pyrazin-2-yl)-8-((R)-morpholin-3-yl)-3,4-dihydroisoquinolin-2(1H)-yl)methanone] | 0.11 |
| O=C(N1CCc2cc(-c3cnc4[nH]cc(Cl)c4n3)cc([C@@H]3COCCN3)c2C1)N1C[C@H]2CC[C@@H]1CO2 (single isomer, unassigned) [Compound Z591] | 0.275 |

Further lines, results first:

| IC50 [µM] | Structure (SMILES) |
| --- | --- |
| 0.143 | C[C@@H]1COCCN1C(=O)N1CCc2cc(-c3cnc4[nH]cc(Cl)c4c3)cc([C@@H]3COCCN3)c2C1 [Compound Z500, (6-(3-chloro-1H-pyrrolo[2,3-b]pyridin-5-yl)-8-((R)-morpholin-3-yl)-3,4-dihydroisoquinolin-2(1H)-yl)((R)-3-methylmorpholine)methanone] |
| 0.219 | O=S(=O)(C1CC1)N1CCc2cc(-c3cnc4[nH]cc(Cl)c4c3)cc([C@@H]3COCCN3)c2C1 [Compound Z499, (R)-3-(6-(3-chloro-1H-pyrrolo[2,3-b]pyridin-5-yl)-2-(cyclopropylsulfonyl)-1,2,3,4-tetrahydroisoquinolin-8-yl)morpholine] |
| 0.153 | O=C(C1CCOCC1)N1CCc2c(cc(-c3cnc4[nH]cc(Cl)c4c3)cc2[C@@H]2COCCN2)C1 [Compound Z487, (R)-(7-(3-chloro-1H-pyrrolo[2,3-b]pyridin-5-yl)-5-(morpholin-3-yl)-3,4-dihydroisoquinolin-2(1H)-yl)(tetrahydro-2H-pyran-4-yl)methanone] |
| 0.197 | Cc1c[nH]c2ncc(-c3cc4c(c([C@@H]5COCCN5)c3)CN(C(=O)N3C[C@@H](C)O[C@@H](C)C3)CC4)cc12 [Compound Z519, ((2R,6S)-2,6-dimethylmorpholine)(6-(3-methyl-1H-pyrrolo[2,3-b]pyridin-5-yl)-8-((R)-morpholin-3-yl)-3,4-dihydroisoquinolin-2-1H-yl)methanone] |
| 0.126 | O=C(N1CCc2cc(-c3cnc4[nH]cc(Cl)c4c3)cc([C@@H]3COCCN3)c2C1)C1(O)CCOCC1 [Compound Z485, (R)-(6-(3-chloro-1H-pyrrolo[2,3-b]pyridin-5-yl)-8-(morpholin-3-yl)-3,4-dihydroisoquinolin-2(1H)-yl)(4-hydroxytetrahydro-2H-pyran-4-yl)methanone] |
| 0.936 | Cc1c[nH]c2ncc(-c3cc4c(c([C@@H]5COCCN5)c3)CN(C(=O)N3CCC(O)C3)CC4)cc12 (stereo partly drawn) [Compound Z558, (3-hydroxypyrrolidin-1-yl)(6-(3-methyl-1H-pyrrolo[2,3-b]pyridin-5-yl)-8-((R)-morpholin-3-yl)-3,4-dihydroisoquinolin-2(1H)-yl)methanone] |
| 0.24 | O=C([C@H]1CCOC1)N1CCc2cc(-c3cnc4[nH]cc(Cl)c4c3)cc([C@@H]3COCCN3)c2C1 [Compound Z631, (6-(3-chloro-1H-pyrrolo[2,3-b]pyridin-5-yl)-8-((R)-morpholin-3-yl)-3,4-dihydroisoquinolin-2(1H)-yl)((S)-tetrahydrofuran-3-yl)methanone] |
| 0.174 | Cc1c[nH]c2ncc(-c3cc4c(c([C@@H]5COCCN5)c3)CN(C(=O)N3CC5(CCOCC5)C3)CC4)cc12 [Compound Z563, (R)-(6-(3-methyl-1H-pyrrolo[2,3-b]pyridin-5-yl)-8-(morpholin-3-yl)-3,4-dihydroisoquinolin-2(1H)-yl)(7-oxa-2-azaspiro[3.5]nonan-2-yl)methanone] |
| 0.306 | COCC(=O)N1CCc2cc(-c3cnc4[nH]cc(Cl)c4c3)cc([C@@H]3COCCN3)c2C1 [Compound Z466, (R)-1-[6-(3-chloro-1H-pyrrolo[2,3-b]pyridin-5-yl)-8-morpholin-3-yl-3,4-dihydroisoquinolin-2(1H)-yl]-2-methoxyethan-1-one] |
| 0.117 | O=C(N1CCc2cc(-c3cnc4[nH]cc(F)c4c3)cc([C@@H]3COCCN3)c2C1)N1CC2CCC(C1)O2 [Compound Z475] |
| 0.385 | Cc1c[nH]c2ncc(-c3cc4c(c([C@@H]5COCCN5)c3)CN(S(=O)(=O)C3CC3)CC4)cc12 [Compound Z467, (R)-3-[2-cyclopropylsulfonyl-6-(3-methyl-1H-pyrrolo[2,3-b]pyridin-5-yl)-1,2,3,4-tetrahydroisoquinolin-8-yl]morpholine] |
| 0.195 | Cc1c[nH]c2ncc(-c3cc4c(c([C@@H]5COCCN5)c3)CN(C3CCN(C)CC3)CC4)cc12 [Compound Z498, (R)-3-(6-(3-methyl-1H-pyrrolo[2,3-b]pyridin-5-yl)-2-(1-methylpiperidin-4-yl)-1,2,3,4-tetrahydroisoquinolin-8-yl)morpholine] |
| 0.655 | Cc1c[nH]c2ncc(-c3cc4c(c([C@@H]5COCCN5)c3)CN(C3CCOCC3)CC4)cc12 [Compound Z454, (R)-3-(6-(3-methyl-1H-pyrrolo[2,3-b]pyridin-5-yl)-2-(tetrahydro-2H-pyran-4-yl)-1,2,3,4-tetrahydroisoquinolin-8-yl)morpholine] |
| 0.127 | CN1C2CCC1CN(C(=O)N1CCc3cc(-c4cnc5[nH]cc(Cl)c5c4)cc([C@@H]4COCCN4)c3C1)C2 [Compound Z470] |
| 0.232 | Cc1c[nH]c2ncc(-c3cc4c(c([C@@H]5COCCN5)c3)CN(C(=O)C3CC5CCC(C3)O5)CC4)cc12 (stereo partly drawn) [Compound Z504, (8-oxabicyclo[3.2.1]octan-3-yl)(6-(3-methyl-1H-pyrrolo[2,3-b]pyridin-5-yl)-8[(R)-morpholin-3-yl)-3,4-dihydroisoquinolin-2(1H)-yl)-methanone] |
| 0.329 | CO[C@@H]1CCN(C(=O)N2CCc3cc(-c4cnc5[nH]cc(C)c5c4)cc([C@@H]4COCCN4)c3C2)C1 [Compound Z478] |
